These results are taken from US9603900B2, “Use of PACAP for the treatment of viral infections in aquatic organisms” (Centro de Ingenieria Genetica y Biotecnologia, priority 2010, dated 2017).

Marks after values point to notes of the source that are not given here.

The test system of assay [1] is IPNV. To be noted: daily baths 0.4 and 0.8 μg/mL for two hours during 20 days; cited from earlier work.
For assay [2], the system named is IHNV. Description: Rainbow trout experimentally infected with IHNV. To be noted: amantadine 400/800 μg/L, PACAP 100/200 μg/L or combinations, doses not told apart; untreated infected 26%. In kind it is in vivo, rainbow trout (O. mykiss).
Description: The fish were challenged by immersion with 5.9×10^3 pfu/ml virus in 20 L of water with aeration for 1 hour.
Assay [3] concerns IPNV (strain ATCC VR-299). Description: Atlantic salmon experimentally infected with IPNV, treatment by immersion. Format: in vivo, Atlantic salmon (Salmo salar). To be noted: for Increment / Final Weight: 45 days post-infection; for Final Weight: initial 1.2 ± 0.3 g; for survival: 45 days, untreated infected 30%. How it is done:
An experiment was conducted to evaluate the effect of the administration of PACAP and PACAP-ribavirin combination for salmon (Salmo salar) experimentally infected with IPNV. Eight experimental groups were performed of 50 fish and a size of 1.2±0.3 g each one and were kept in water at 10-12° C.: • Group 1: untreated fish not exposed to the virus • Group 2: untreated fish, exposed to the virus • Group 3: Group treated with ribavirin at a dose of 400 μg/L of water, exposed to the virus • Group 4: Group treated with ribavirin at a dose of 800 μg/L of water, exposed to the virus • Group 5: Group treated with PACAP at a dose of 100 μg/L of water, exposed to the virus • Group 6: Group treated with PACAP at a dose of 200 μg/L, exposed to the virus • Group 7: Group treated with ribavirin 400 μg/L-PACAP 100 μg/L combination, exposed to the virus • Group 8: Group treated with ribavirin 800 μg/L-PACAP 200 μg/L combination, exposed to the virus.
The animals were fed twice a day with an amount equivalent to 3% of the total corporal weight in each tank. […] Treatments were performed 3 times a week for 20 days. Experimental observations were made during this period and 25 days after the last treatments. During the 45 days of the experiment deaths and abnormal behavior of the fish were monitored. Fish in Groups 1 and 2 were subjected to the same stress produced by the treatment without the antiviral compound or the combination of PACAP-antiviral. The fish in Group 1 received the same procedure with cell culture medium instead of the virus.

In assay [4] the test system is IPNV. Description: Oysters experimentally infected with IPNV, viral titer in hepatopancreas. In kind it is in vivo, oysters of the species Pecten maximus. Particulars: two weeks after challenge, untreated infected 8.1.
Description: Eight experimental groups were performed of 30 adult oysters each one and were kept in 250 L of filtered sea water at 10° C.
Treatments were performed 3 times a week for 20 days. Oysters were challenged by exposure to 25 L of water containing 10^7 TCID50 mL^−1 in tanks of 80 L. After 6 h the water was replaced at a slow flow of 1 L/min and at 12 h the flow was increased to 3 L/min.
Two weeks after challenge hepatopancreas samples were taken and determined the viral titer.
Assay [5] deals with IPNV (strain ATCC VR-299). Description: Rainbow trout experimentally infected with IPNV, treatment by immersion. Format: in vivo, rainbow trout (O. mykiss). To be noted: for Increment with respect to initial weight / Final Weight: 45 days post-infection; for Final Weight: initial 1.6 ± 0.4 g; for survival: 45 days, untreated infected 20%. The protocol: An experiment was conducted to evaluate the effect of administration of PACAP and PACAP-ribavirin combination in rainbow trout experimentally infected with IPNV. Eight experimental groups of 50 fish each at a body weight of 1.6±0.4 g were used. The water temperature was kept at 10-12° C. • Group 1: untreated fish not exposed to the virus • Group 2: untreated fish, exposed to the virus • Group 3: Group treated with ribavirin at a dose of 400 μg/L of water, exposed to the virus • Group 4: Group treated with ribavirin at a dose of 800 μg/L of water, exposed to the virus • Group 5: Group treated with PACAP at a dose of 100 μg/L of water, exposed to the virus • Group 6: Group treated with PACAP at a dose of 200 μg/L of water, exposed to the virus. • Group 7: Group treated with the combination 1 (ribavirina 400 μg/L-PACAP 100 μg/L, exposed to the virus.
Group 8: Group treated with the combination 2 (ribavirina 800 μg/L-PACAP 200 μg/L exposed to the virus.
The animals were fed twice a day with an amount equivalent to 3% of the total corporal weight in each tank. […] Fish in Groups 1 and 2 were subjected to the same stress treatment without the antiviral compound or without the PACAP-antiviral combination. The fish in Group 1 received the same procedure with cell culture medium instead of virus. […] Treatments with PACAP or with PACAP-antiviral combination were performed 3 times a week for 20 days. The first treatments were performed 2 h after viral infection. Experimental observations were made during the first 20 days of treatments and 25 days after it concluded. During the experiment (45 days) deaths and abnormal behavior of the fish were monitored.

Assay [6] has as its system TLR9 coding gene. Description: PACAP38 effect on transcription of TLR9 coding gene in leukocytes (qPCR). In kind it is cell-based, rainbow trout (Oncorhynchus mykiss). Particulars: 48 hours. An excerpt: (§1) Juvenile rainbow trout (O. mykiss) was used of approximately 50 grams, VHSV and IPNV free. Fish (n=5) were anesthetized with methanesulfonic acid salt (Sigma, USA) and were removed aseptically, first peripheral blood from the tail vein and then the anterior kidney were isolated from peripheral blood leukocytes from anterior kidney and trout from 5 independently, following the method described by Graham and Secombe (Graham and Secombe ([…]) Immunology 65:293-7).
(§2) The peripheral blood of each fish was diluted 4 times in half Leibovitz (L-15, Gibco, UK) supplemented with penicillin 100 IU/mL, streptomycin (100 μg/mL), heparin (10 units/mL) and 2% FCS and placed carefully on a Percoll gradient to 51%. The ring of cells corresponding to leukocytes was removed carefully, washed twice in L-15 containing 0.1% FCS.
(§3) The anterior kidney was passed through a nylon mesh of 100 μm Leibovitz (L-15, Gibco, UK) supplemented with penicillin 100 IU/mL, streptomycin (100 μg/mL), heparin (10 units/mL) and 2% FCS. The resulting cell suspension was diluted 1:4 in the same medium supplemented L-15 and placed carefully on a Percoll gradient to 51%. The ring of cells corresponding to leukocytes was removed carefully, washed twice in L-15 containing 0.1% FCS.
(§4) The cells were suspended in L-15 with 5% FCS at a concentration of 5×10^6 cells per ml and dispensed in 24-well plates at 1 mL per well. The leukocytes were treated with 3 doses of PACAP38 from Clarias gariepinus obtained by chemical synthesis (10^−10 M, 10^−9 M and 10^−8 M) in duplicate and used as negative control untreated leukocytes dispensed in duplicate.
The levels of Mx, IFN and TLR9 were evaluated 48 hours after treatment. […]
For the synthesis of cDNA it was used a commercial reagent kit uses SuperScript III reverse transcriptase (Invitrogen). Finally, for quantitative PCR reactions (qPCR) was used a mixture of PCR from commercial sources: Power SYBR Green PCR Master Mix (Applied Biosystems). […] The results were expressed as 2^−ΔCt, where ΔCt is equal to the remainder of the gene Ct value minus the assessed value of Ct normalizer gene EF 1α).

The test system of assay [7] is Mx protein coding gene. Description: PACAP38 effect on transcription of Mx protein coding gene in leukocytes (qPCR). To be noted: 48 hours. In kind it is cell-based, rainbow trout (Oncorhynchus mykiss).
Description: as §1, §2, §3, §4
(§5) The levels of Mx, IFN and TLR9 were evaluated 48 hours after treatment. In order to do so, total RNA was purified from leukocyte cultures treated with PACAP by the method described by Chomczynski and Sacchi (Chomczynski and Sacchi (1987) Anal. Biochem. 162:156-9).
(§6) For the synthesis of cDNA it was used a commercial reagent kit uses SuperScript III reverse transcriptase (Invitrogen). Finally, for quantitative PCR reactions (qPCR) was used a mixture of PCR from commercial sources: Power SYBR Green PCR Master Mix (Applied Biosystems). The qPCR results were normalized against a constitutive endogenous constitutive expression gene specifically elongation 1α (EF 1α) and were performed in triplicate. The results were expressed as 2^−ΔCt, where ΔCt is equal to the remainder of the gene Ct value minus the assessed value of Ct normalizer gene EF 1α).

The test system of assay [8] is IFN γ coding gene. Description: PACAP38 effect on transcription of IFN γ coding gene in leukocytes (qPCR). Format: cell-based, rainbow trout (Oncorhynchus mykiss). Particulars: 48 hours.
Description: as §1, §2, §3, §4, §5, §6

Where [9] appears, read: Groups 3, 5, 7: ribavirin 400 μg/L, PACAP 100 μg/L or both.
Where [10] appears, read: Groups 4, 6, 8: ribavirin 800 μg/L, PACAP 200 μg/L or both.
Setting [11] is: Groups 3, 5, 7: ribavirin 400 μg/L, PACAP 100 μg/L or combination 1.
Where [12] appears, read: Groups 4, 6, 8: ribavirin 800 μg/L, PACAP 200 μg/L or combination 2.
[13] abbreviates: head kidney leukocytes, 10^−9 M.

Regarding `C#Cc1c(C(N)=O)ncn1[C@@H]1O[C@H](CO)[C@@H](O)[C@H]1O` [EICAR, 5-ethynyl-1-β-D-ribofuranosylimidazole-carboxamide], in assay [1], the “viral load in liver and spleen (RT-PCR)” value is “decrease in viral load”.

`NC12CC3CC(CC(C3)C1)C2` [amantadine]: the survival in assay [2] worked out at 46%.

Consider `NC(=O)c1ncn([C@@H]2O[C@H](CO)[C@@H](O)[C@H]2O)n1` [ribavirin], for which the “day on which early signs of disease were detected” value in assay [3] (Atlantic salmon, IPNV, both doses, untreated infected: day 6) was found to be 10 days. For the same compound, the results for the Increment in assay [3] (setting [9]) and in assay [3] (setting [10]) were 83% and 92%, respectively. For the same compound, the “Final Weight” value is listed as 2.2 ± 0.4^c g in assay [3] (setting [9]), 2.3 ± 0.5^c g in assay [3] (setting [10]), 3.8 ± 1.1^c g in assay [5] (setting [11]) and 3.7 ± 1.0^c g in assay [5] (setting [12]). Besides, the survival in assay [3] (high dose: ribavirin 800 μg/L or PACAP 200 μg/L) came out at 76%; in assay [3] (low dose: ribavirin 400 μg/L or PACAP 100 μg/L), 70%; in assay [5] (setting [11]) it was 68%; in assay [5] (setting [12]) it was 70%. The “IPNV average viral titer in the hepatopancreas” value is listed as 5.4^b log10TCID50 g^−1 in assay [4] (setting [11]) and 4.3^b log10TCID50 g^−1 in assay [4] (setting [12]). Moreover, the “Increment with respect to initial weight” value is recorded as 137% in assay [5] (setting [11]) and 131% in assay [5] (setting [12]). In addition, the “day on which appetite was recovered” value in assay [5] (rainbow trout, IPNV, both doses, untreated infected: day 15) was found to be 13 days. Besides, the “day on which signs of disease were detected” value in assay [5] (rainbow trout, IPNV, treatments 3 times a week for 20 days, both doses, untreated infected: day 6) turned out to be 8 days.

Regarding PACAP38, in assay [6] (setting [13]), the “TLR9 expression levels versus negative control” value is “statistically higher than the negative control”. Also, the TLR9 expression levels result in assay [6] (peripheral blood leukocytes, 10^−10-10^−8 M, undetectable in unstimulated cultures) is “detectable levels”. Besides, in assay [6] (peripheral blood leukocytes), the “dose giving the highest TLR9 expression values” is given as 10^−10 M. Besides, the “Mx protein expression levels relative to negative control” value is reported as “stimulatory effect” in assay [7] (setting [13]); “did not differ” in assay [7] (peripheral blood leukocytes, 10^−8 M); “stimulatory effect” in assay [7] (peripheral blood leukocytes, 10^−9 M, below levels at 10^−10 M); “increase” in assay [7] (peripheral blood leukocytes, 10^−10 M). For the same compound, the “IFN γ expression levels versus control group” value in assay [8] (anterior kidney leukocytes, 10^−9 and 10^−8 M) is on record as “statistically higher than the control group”. In assay [8] (anterior kidney leukocytes), the “dose giving the best IFN γ expression results” value is given as 10^−9 M. In addition, the “IFN γ expression levels” value in assay [8] (peripheral blood leukocytes, 3 doses (10^−10, 10^−9, 10^−8 M), undetectable in non-treated cultures) is on record as “detectable levels of expression”. Further, the “dose giving the highest IFN γ expression level” value in assay [8] (peripheral blood leukocytes) was 10^−9 M.
